The values that follow come from ChEMBL document CHEMBL1132330 (J Med Chem, 1999).

The structures appear in SMILES notation.

One may read the Ki as a dissociation constant, usually derived from enzyme kinetics or from competition with a known ligand. A word on the IC50: it is the midpoint of a concentration-inhibition curve. Low values mean greater potency in that assay, high ones weaker potency in that assay.

Test [1] has as its target T1, Substance-K receptor (Homo sapiens, UniProt P21452).
T1 sequence (P21452 whole entry): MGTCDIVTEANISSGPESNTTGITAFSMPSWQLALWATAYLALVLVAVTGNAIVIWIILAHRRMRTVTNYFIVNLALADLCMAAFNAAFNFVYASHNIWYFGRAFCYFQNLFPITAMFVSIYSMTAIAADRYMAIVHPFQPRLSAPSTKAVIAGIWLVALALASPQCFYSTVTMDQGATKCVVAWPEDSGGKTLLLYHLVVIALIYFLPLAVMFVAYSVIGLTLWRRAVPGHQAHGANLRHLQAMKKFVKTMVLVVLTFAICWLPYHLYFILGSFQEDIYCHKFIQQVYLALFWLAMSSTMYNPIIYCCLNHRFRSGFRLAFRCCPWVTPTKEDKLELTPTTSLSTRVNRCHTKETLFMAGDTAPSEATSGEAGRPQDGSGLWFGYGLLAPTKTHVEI
Kind of test: The compound was tested for competition binding with [3H]NKA against the CHO cells from cloned human Tachykinin receptor 2. It is filed as cell-based.

For test [2], the target named is T1, Substance-K receptor. Kind of test: Inhibitory activity against human Tachykinin receptor 2.
Test [3] has as its system Substance-K receptor (Mesocricetus auratus). Kind of test: Efficacy towards hamster Tachykinin receptor 2 was determined.

On Substance-K receptor [1], `CSCC[C@H](NC(=O)[C@H](CC(C)C)NC(=O)CNC(=O)[C@@H](NC(=O)[C@H](Cc1ccccc1)NC(=O)[C@H](Cc1ccccc1)NC(=O)[C@H](CC(=O)O)NC(=O)[C@H](Cc1c[nH]cn1)NC(=O)[C@H](CCSC)NC(=O)[C@@H](N)CC(=O)O)C(C)C)C(N)=O` [NEUROKININ B] registered an inhibition constant (Ki) of 42.2 nM. The compound also had an IC50 at Substance-K receptor [2] of 102 nM. In turn, `CC(C)CC[C@H](NC(=O)[C@H](CC(C)C)NC(=O)CNC(=O)[C@@H](NC(=O)[C@H](Cc1ccc(Cl)cc1)NC(=O)[C@@H](NC(=O)[C@@H](N)CC(=O)O)[C@@H](C)O)C(C)C)C(N)=O` yielded an Efficacy in test [3] of 97.8. `CC(C)CC[C@H](NC(=O)[C@H](CC(C)C)NC(=O)CNC(=O)[C@@H](NC(=O)[C@H](Cc1ccc(F)cc1)NC(=O)[C@@H](NC(=O)[C@@H](N)CC(=O)O)[C@@H](C)O)C(C)C)C(N)=O` registered an Efficacy in test [3] of 114. Still for that read-out and setting: the value for `CC(C)CC[C@H](NC(=O)[C@H](CC(C)C)NC(=O)CNC(=O)[C@@H](NC(=O)[C@H](Cc1ccccc1)NC(=O)[C@@H](NC(=O)[C@@H](N)CC(=O)O)[C@@H](C)O)C(C)C)C(N)=O` was 116.
